Reference: patent US6632962B2, “Caspase inhibitors and uses thereof” (Vertex Pharmaceuticals Incorporated, priority 1999, dated 2003)
Structures can show the parent of a compound that is named as a salt.

Experiments:
Jurkat E6.1 cells = test: Anti-Fas induced apoptosis assay (DNA fragmentation); format: cell-based; details: Homo sapiens, anti-Fas antibody CH-11 10 ng/ml, 16-18 hrs, DNA fragmentation OD405
From the text: Cellular apoptosis may be induced by the binding of Fas ligand (FasL) to its receptor, CD95 (Fas). CD95 is one of a family of related receptors, known as death receptors, which can trigger apoptosis in cells via activation of the caspase enzyme cascade. The process is initiated by the binding of the adapter molecule FADD/MORT-1 to the cytoplasmic domain of the CD-95 receptor-ligand complex. Caspase-8 then binds FADD and becomes activated, initiating a cascade of events that involve the activation of downstream caspases and subsequent cellular apoptosis. Apoptosis can also be induced in cells expressing CD95 eg the Jurkat E6.1 T cell lymphoma cell line, using an antibody, rather than FasL, to crosslink the cell surface CD95. Anti-Fas-induced apoptosis is also triggered via the activation of caspase-8. This provides the basis of a cell-based assay to screen compounds for inhibition of the caspase-8-mediated apoptotic pathway.
Jurkat E6.1 cells are cultured in complete medium consisting of RPMI-1640 (Sigma No)+10% foetal calf serum (Gibco BRL No.10099-141)+2 mM L-glutamine (Sigma No. G-7513). The cells are harvested in log phase of growth. 100 ml Cells at 5-8×10^5 cells/ml are transferred to sterile 50 ml Falcon centrifuge tubes and centrifuged for 5 minutes at 100× g at room temperature. The supernatant is removed and the combined cell pellets resuspended in 25 ml of complete medium. The cells are counted and the density adjusted to 2×10^6 cells/ml with complete medium.
The test compound was dissolved in dimethyl sulfoxide (DMSO)(Sigma No. D-2650) to give a 100 mM stock solution. This was diluted to 400 μM in complete medium, then serially diluted in a 96-well plate prior to addition to the cell assay plate.
100-μl of the cell suspension ([…]) were added to each well of a sterile 96-well round-bottomed cluster plate (Costar No. 3790). 50 μl of compound solution at the appropriate dilution and 50 μl of anti-Fas antibody, clone CH-11 (Kamiya No.MC-060) at a final concentration of 10 ng/ml, were added to the wells. Control wells were set up minus antibody and minus compound but with a serial dilution of DMSO as vehicle control. The plates were incubated for 16-18 hrs at 37° C. in 5% CO2 and 95% humidity.
Apoptosis of the cells was measured by the quantitation of DNA fragmentation using a ‘Cell Death Detection Assay’ from Boehringer-Mannheim, No. 1544 675. After incubation for 16-18 hrs the assay plates were centrifuged at 100× g at room temperature for 5 minutes. 150 μl of the supernatant were removed and replaced by 150 μl of fresh complete medium. The cells were then harvested and 200 μl of the lysis buffer supplied in the assay kit were added to each well. The cells were triturated to ensure complete lysis and incubated for 30 minutes at 4° C. The plates were then centrifuged at 1900× g for 10 minutes and the supernatants diluted 1:20 in the incubation buffer provided. 100 μl of this solution were then assayed exactly according to the manufacturer's instructions supplied with the kit. OD405 nm were measured 20 minutes after addition of the final substrate in a SPECTRAmax Plus plate reader (molecular Devices). OD405 nm was plotted versus compound concentration and the IC50 values for the compounds were calculated using the curve-fitting program SOFTmax Pro (Molecular Devices) using the four parameter fit option.

[1] = target: recombinant, purified human caspase-8 (Homo sapiens, UniProt Q14790); test: Caspase-8 assay (fluorogenic substrate cleavage, kinact); format: biochemical; details: second order rate constant of inactivation; 1.5 nM caspase-8, 10 μM AcDEVD-AMC, 37° C.
Procedure: The assay for caspase-8 activity was based on the cleavage of a fluorogenic substrate by recombinant, purified human caspase-8 essentially according to the method described by Garcia-Calvo et al (1998) J. Biol. Chem. 273:32608-32613.
(§1) Assay Buffer: 10 mM Tris-HCI (Sigma T-3038), 1 mM dithiothreitol (DTT) (Calbiochem 233153), 0.1% CHAPS (Sigma C-3023), pH 7.5. Purified recombinant human Caspase-8. Substrate (acetyl-Asp-Glu-Val-Asp-amino-4-methyl coumarin, ACDEVD-AMC) (Bachem, I-1660). Serial dilution of test compound in DMSO (Sigma D-2650).
(§2) 70 microliters (μl) assay buffer, 20 μl of substrate and 5 μl of the inhibitor solution were added to the wells of a 96-well microtiter assay plate giving a final concentration of 1.5 nM caspase-8 and 10 μM substrate. The plate was incubated at 50° C. for 15 minutes in a thermostatically controlled plate warmer (Wesbart, UK). The reaction was then started by the addition of enzyme directly to the wells. The reaction was monitored continuously for 20 minutes in a fluorimeter (SPECTRAmax Gemini, Molecular Devices) at 37° C. by following the release of AMC fluorophor at an excitation wavelength of 390 nm and an emission wavelength of 460 nm. For each well, the observed rate of enzyme inactivation at a particular inhibitor concentration, kobs, was computed by direct fits of the data to the equation derived by Thornberry et al., (1994, Biochemistry 33, […]) using a non-linear least squares analysis computer program (PRISM 2.0, Graph Pad Software). To obtain the second order rate constant, kinact, kobs values were plotted against their respective inhibitor concentrations and kinact values were subsequently calculated by computerized linear regression.

Caspase-9 = target: T1, Caspase-9 (Homo sapiens, UniProt P55211); test: Caspase-9 assay (fluorogenic substrate cleavage, kinact); format: biochemical; details: second order rate constant of inactivation; 0.00125 units/ml caspase-9, 50 μM AcDEVD-AMC, buffer with 8% glycerol
T1 construct: purchased Europa Bioproducts UBC2088
T1 sequence (P55211 1-315 limits assumed): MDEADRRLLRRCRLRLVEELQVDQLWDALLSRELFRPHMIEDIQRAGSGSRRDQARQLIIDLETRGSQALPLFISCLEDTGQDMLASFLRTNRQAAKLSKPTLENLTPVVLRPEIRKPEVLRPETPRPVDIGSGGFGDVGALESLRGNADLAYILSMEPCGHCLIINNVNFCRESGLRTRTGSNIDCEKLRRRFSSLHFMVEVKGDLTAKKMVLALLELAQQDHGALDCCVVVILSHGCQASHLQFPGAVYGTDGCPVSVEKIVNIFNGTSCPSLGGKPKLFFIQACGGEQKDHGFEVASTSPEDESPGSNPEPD
T1 sequence (P55211 331-416 limits assumed): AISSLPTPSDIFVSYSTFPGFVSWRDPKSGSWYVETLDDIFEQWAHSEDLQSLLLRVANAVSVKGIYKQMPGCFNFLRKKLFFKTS
Procedure: as §1, §2
Caspase-9 was purchased from Europa Bioproducts (order No UBC2088) and used with a concentration of 0.00125 units/ml (units defined by the manufacturer as amount of enzyme that cleaves 1 nmol of LEHD-pNA in 1 h at 37° C.). The assay was run as described for the caspase-8 assay except that the caspase-9 buffer additionally contained 8% glycerol (and the substrate concentration is 50 μM AcDEVD-AMC as opposed to 10 μM for caspase-8).

recombinant, purified human caspase-8, sequence (Q14790 217-374 limits assumed): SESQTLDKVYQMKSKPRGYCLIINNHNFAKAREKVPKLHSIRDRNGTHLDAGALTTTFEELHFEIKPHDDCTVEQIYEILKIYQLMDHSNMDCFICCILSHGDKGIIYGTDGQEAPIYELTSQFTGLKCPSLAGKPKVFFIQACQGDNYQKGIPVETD
recombinant, purified human caspase-8, sequence (Q14790 385-479 limits assumed): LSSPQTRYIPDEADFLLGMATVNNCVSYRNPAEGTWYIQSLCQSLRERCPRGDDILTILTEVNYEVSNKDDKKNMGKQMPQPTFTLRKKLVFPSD

SMILES | IC50 (Jurkat E6.1 cells) [nM] | Kinact (1/M/s), Caspase-8 Activity [1] | Kinact (1/M/s), Caspase-9 Activity (Caspase-9)
O=C(O)CC(NC(=O)c1cccc(-c2ccccc2)c1)C(=O)CF (centres unmarked) [Example 14, 3-(Biphenyl-3-carboxamido)-5-fluoro-4-oxo-pentanoic Acid] | – | – | B (kinact less than 60,000)
O=C(O)CC(NC(=O)c1ccc(C(F)(F)F)cc1)C(=O)CF (centres unmarked) [Example 13, 5-Fluoro-3-(4-trifluoromethylbenzoylamino)-4-oxo-pent anoic Acid] | > 1000 | C (kinact less than 40,000) | –
O=C(O)CC(NC(=O)c1cc2ccccc2[nH]1)C(=O)CF (centres unmarked) [Example 31, 5-Fluoro-3-(1H-indolyl-2-carboxamido)-4-oxo-pentanoi c Acid] | > 1000 | C (kinact less than 40,000) | –
O=C(O)CC(NC(=O)c1ccc(Cl)c(Cl)c1)C(=O)CF (centres unmarked) [Example 7, 3-(3,4-Dichlorobenzoylamino)-5-fluoro-4-oxo-pentanoic Acid] | 200 to 1000 | B (kinact between 40,000 and 60,000) | –
O=C(O)CC(NC(=O)c1ccsc1)C(=O)CF (centres unmarked) [Example 29, 5-Fluoro-4-oxo-3-(thienyl-3-carboxamido)-pentanoic Acid] | – | – | B (kinact less than 60,000)
O=C(O)CC(NC(=O)c1ccc(-c2ccccc2)o1)C(=O)CF (centres unmarked) [Example 34, 5-Fluoro-3-(5-phenyl-furyl-2-carboxamido)-4-oxo-pentanoic Acid] | 200 to 1000 | A (kinact (1/M/s) greater than 60,000) | –

Other lines, results leading:

IC50 (Jurkat E6.1 cells) [nM] | Kinact (1/M/s), Caspase-8 Activity [1] | Kinact (1/M/s), Caspase-9 Activity (Caspase-9) | SMILES
< 200 | B (kinact between 40,000 and 60,000) | – | COc1cccc(C(=O)NC(CC(=O)O)C(=O)CF)c1 (centres unmarked) [Example 16, 5-Fluoro-3-(3-methoxybenzoylamino)-4-oxo-pentanoic Acid]
< 200 | C (kinact less than 40,000) | – | O=C(O)CC(NC(=O)c1ccccc1Cl)C(=O)CF (centres unmarked) [Example 4, 3-(2-Chlorobenzoylamino)-5-fluoro-4-oxo-pentanoic Acid]
< 200 | B (kinact between 40,000 and 60,000) | – | O=C(O)CC(NC(=O)c1cccc(F)c1)C(=O)CF (centres unmarked) [Example 10, 5-Fluoro-3-(3-fluorobenzoylamino)-4-oxo-pentanoic Acid]
200 to 1000 | B (kinact between 40,000 and 60,000) | – | N#Cc1cccc(C(=O)NC(CC(=O)O)C(=O)CF)c1 (centres unmarked) [Example 19, 3-(3-Cyanobenzoylamino)-5-fluoro-4-oxo-pentanoic Acid]
< 200 | A (kinact (1/M/s) greater than 60,000) | A (kinact (1/M/s) greater than 60,000) | O=C(O)CC(NC(=O)c1ccccc1)C(=O)CF (centres unmarked) [Example 1, 3-Benzoylamino-5-fluoro-4-oxo-pentanoic Acid]
< 200 | A (kinact (1/M/s) greater than 60,000) | – | O=C(O)CC(NC(=O)c1cccc(Oc2ccccc2)c1)C(=O)CF (centres unmarked) [Example 37, 5-Fluoro-4-oxo-3-(3-phenoxybenzoylamino)-pentanoic Acid]
< 200 | B (kinact between 40,000 and 60,000) | – | O=C(O)CC(NC(=O)c1cccc2ccccc12)C(=O)CF (centres unmarked) [Example 22, 5-Fluoro-3-(naphthyl-1-carboxamido)-4-oxo-pentanoic acid]
< 200 | C (kinact less than 40,000) | – | O=C(O)CC(NC(=O)c1cccs1)C(=O)CF (centres unmarked) [Example 28, 5-Fluoro-4-oxo-3-(thienyl-2-carboxamido)-pentanoic Acid]
< 200 | B (kinact between 40,000 and 60,000) | – | O=C(O)CC(NC(=O)c1cccnc1)C(=O)CF (centres unmarked) [Example 25, 5-Fluoro-4-oxo-3-(pyridyl-3-carboxamido)-pentanoic Acid Trifluoroacetate Salt]
